Reference: patent US20080305995A1, “Royal Jelly Peptide and Composition Containing the Same” (priority 2003, published 2008)

Tests used:
[1] = system: honeybee larvae; experiment: Effect of inducing differentiation to queen bees (honeybee artificial breeding, peptide in artificial diet); assay type: in vivo, Western honeybees (Apis mellifela)
Description: Functional analysis was carried out by using the royal jelly peptide obtained in Example 6. Specifically, honeybees were bred according to the existing honeybee artificial breeding method. In this process, 500 ng of the royal jelly peptide was added in the artificial diet to be administered per honeybee. On the other hand, for the control group, bovine serum albumin was used in place of the royal jelly peptide.
The growth rate from larvae to imagines is about 20%. […] From this, it can be considered that the royal jelly peptide of the invention of this invention is […] having an auxiliary function in inducing differentiation to queen bees.

[2] = system: lymphocyte cell derived from a mouse spleen; experiment: Immunity activation test (alamar blue, lymphocyte growth); assay type: cell-based, ICR type mice; details: 3 μg/ml and 6 μg/ml, every 12 hours for 4 days, compared with no addition (FIG. 9)
Description: For the laboratory animal, ICR type mice (female, Nippon SLC) were used.
Whereas, for the medium, an RPMI medium (manufactured by Nissui Pharmaceutical Co., Ltd.) containing 10% fetal calf serum (FCS), 2 mM L-glutamine, 50 μM 2-mercaptoethanol, 100 Units/ml penicillin, and 100 μg/ml streptomycin was used. Thus, culturing was carried out in 5% CO2 at 37° C. under wet conditions.
Namely, the mice anesthetized with diethyl ether were subjected to cervical vertebrae dislocation, and fixed. Then, by using scissors for dissection and tweezers, the spleen was excised, and transferred to a dish containing therein 10 ml of PBS (−) (137 mM NaCl, 2.7 mM KCl, 2 mM Na2HPO4-12HyO, 1.5 mM KH2PO4). In the dish, the spleen was homogenized. […]
The lymph cell suspension controlled was dyed with a 0.4% trypan blue solution, and the number of cells was counted by means of a Burker-Turk hemocytomer. […]
The lymph cell suspension controlled in the item <bb was added in an amount of 100 μl per well into a 96-well microplate (manufactured by IWAKI Co.). […] Thus, the changes in absorbance were measured by means of a microplate reader (manufactured by Nalge Nunc International Co.) set at a wavelength of 590 to 620 nm every 12 hours for 4 days to analyze the effects of each fraction and isolated compound on the lymphocytes. […]

[3] = 500 ng per honeybee in artificial diet, 24 first instar larvae
[4] = 500 ng per honeybee in artificial diet, number among imagines

## apisimin (KTSISVKGESNVDVVSQINSLVSSIVSGANVSAVLLAQTLVNILQILIDANVFA) [Recombinant peptide, Royal jelly peptide of 54 amino acid residues (apisimin), expressed in E. coli as thioredoxin fusion, cleaved with Factor Xa]
[1]; [3]
  Number of imagines: 4
  Number of last instar larvae: 14
  Number of pupae: 8
[1]; [4]
  Caste: Intermediates: 1
  Caste: Queen: 0
  Caste: Working bee: 3
[1]; Table 1 experiment
  growth rate from larvae to imagines: about 20%
[1]; larvae to which the royal jelly peptide had been administered
  emergence of intermediates out of the larvae: intermediates can be allowed to emerge
[2]
  effect on the growth of lymphocyte cells (alamar blue absorbance): remarkably exhibited
